How the values were obtained:
CDK7 [1] = target: T1, CDK7 (Homo sapiens, UniProt P50613); experiment: CDK7 target occupancy in Jurkat cells; format: cell-based; parameters: endogenous in cells; host or cells: Jurkat
Target sequence in this assay (P50613 2-346 limits assumed): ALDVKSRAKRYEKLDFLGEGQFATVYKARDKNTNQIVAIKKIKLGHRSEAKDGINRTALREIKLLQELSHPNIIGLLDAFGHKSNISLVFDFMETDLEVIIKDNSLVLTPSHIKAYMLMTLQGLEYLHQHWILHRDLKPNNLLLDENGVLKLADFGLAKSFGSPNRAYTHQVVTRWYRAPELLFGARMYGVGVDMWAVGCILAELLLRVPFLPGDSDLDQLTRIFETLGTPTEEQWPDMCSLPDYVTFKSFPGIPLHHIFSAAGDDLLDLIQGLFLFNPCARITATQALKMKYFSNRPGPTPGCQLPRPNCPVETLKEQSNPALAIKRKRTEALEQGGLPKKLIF
Target sequence in this assay (P51946 whole entry partner): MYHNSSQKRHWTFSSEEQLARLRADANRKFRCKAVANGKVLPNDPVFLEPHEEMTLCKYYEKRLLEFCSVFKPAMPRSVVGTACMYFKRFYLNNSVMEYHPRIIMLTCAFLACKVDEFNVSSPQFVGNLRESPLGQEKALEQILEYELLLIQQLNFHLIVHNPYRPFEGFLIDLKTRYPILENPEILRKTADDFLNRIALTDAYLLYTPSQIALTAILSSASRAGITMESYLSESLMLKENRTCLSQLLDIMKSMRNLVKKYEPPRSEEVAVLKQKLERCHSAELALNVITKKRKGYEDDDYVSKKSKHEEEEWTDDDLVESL
Target sequence in this assay (P51948 whole entry partner): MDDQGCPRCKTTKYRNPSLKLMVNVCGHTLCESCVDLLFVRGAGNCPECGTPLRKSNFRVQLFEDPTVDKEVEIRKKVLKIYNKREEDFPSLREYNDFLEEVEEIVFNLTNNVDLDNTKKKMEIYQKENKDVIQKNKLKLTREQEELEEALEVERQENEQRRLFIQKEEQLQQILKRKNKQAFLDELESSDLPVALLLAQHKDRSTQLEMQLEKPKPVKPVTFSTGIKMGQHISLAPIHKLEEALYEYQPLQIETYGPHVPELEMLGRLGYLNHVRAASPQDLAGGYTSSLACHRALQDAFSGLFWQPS

CDK12 [2] = target: T2, CDK12 (Homo sapiens, UniProt Q9NYV4); experiment: CDK12 plate based target engagement assay in Jurkat cells; format: cell-based; parameters: endogenous in cells; host or cells: Jurkat; conditions: 6 hours treatment, Bio-THZ531 competition
Procedure: Jurkat cells were treated with varying concentrations of the compound for 6 hours. The DMSO concentration was maintained at 0.1%. Cells were harvested and lysed. 200 μg of the lysate was incubated with 1 μM Bio-THZ531 in the presence of 1mM DTT and incubated on a rocker at 4° C. overnight. 100 μL of this sample was added to pre-washed streptavidin coated plates and incubated at room temperature on a rocker for 2 hours. The plates were washed and incubated with CDK12 antibody for overnight at 4° C. Next day the plate was washed and incubated for 2 hours with HRP labelled anti rabbit secondary antibody. Bio-THZ531 bound CDK12 was determined using TMB substrate. The plates were read using the M3 spectrophotometer at […]. Percentage CDK12 occupancy with the test compound was calculated over untreated control. Occupancy50 was calculated by fitting the dose response data to sigmoidal curve fitting equation using GraphPad Prism software V5.

CDK12 [3] = target: T2, CDK12; experiment: Biochemical assay for CDK12 (kinase-tagged phage / qPCR competition binding); parameters: host or cells: E. coli BL21-derived host (T7 phage display) or HEK-293
Procedure: Kinase-tagged T7 phage strains were grown in parallel in 24-well blocks in an E. coli host derived from the BL21 strain. E. coli were grown to log-phase and infected with T7 phage from a frozen stock (multiplicity of infection=0.4) and incubated with shaking at 32° C. until lysis (90-150 minutes). The lysates were centrifuged (6,000×g) and filtered (0.2 μm) to remove cell debris. The remaining kinases were produced in HEK-293 cells and subsequently tagged with DNA for qPCR detection. Streptavidin-coated magnetic beads were treated with biotinylated small molecule ligands for 30 minutes at room temperature to generate affinity resins for kinase assays. The liganded beads were blocked with excess biotin and washed with blocking buffer (SeaBlock (Pierce), 1% BSA, 0.05% Tween 20, 1 mM
DTT) to remove unbound ligand and to reduce non-specific phage binding. Binding reactions were assembled by combining kinases, liganded affinity beads, and test compounds in lx binding buffer (20% SeaBlock, 0.17×PBS, 0.05% Tween 20, 6 mM DTT). Test compounds were prepared as 40× stocks in 100% DMSO and directly diluted into the assay. All reactions were performed in polypropylene 384-well plates in a final volume of 0.02 ml. The assay plates were incubated at room temperature with shaking for 1 hour and the affinity beads were washed with wash buffer (1 PBS, 0.05% Tween 20). The beads were then re-suspended in elution buffer (1× PBS, 0.05% Tween 20, 0.5 μM non-biotinylated affinity ligand) and incubated at room temperature with shaking for 30 minutes. The kinase concentration in the eluates was measured by qPCR.
Target sequence in this assay (Q9NYV4 whole entry, species assumed): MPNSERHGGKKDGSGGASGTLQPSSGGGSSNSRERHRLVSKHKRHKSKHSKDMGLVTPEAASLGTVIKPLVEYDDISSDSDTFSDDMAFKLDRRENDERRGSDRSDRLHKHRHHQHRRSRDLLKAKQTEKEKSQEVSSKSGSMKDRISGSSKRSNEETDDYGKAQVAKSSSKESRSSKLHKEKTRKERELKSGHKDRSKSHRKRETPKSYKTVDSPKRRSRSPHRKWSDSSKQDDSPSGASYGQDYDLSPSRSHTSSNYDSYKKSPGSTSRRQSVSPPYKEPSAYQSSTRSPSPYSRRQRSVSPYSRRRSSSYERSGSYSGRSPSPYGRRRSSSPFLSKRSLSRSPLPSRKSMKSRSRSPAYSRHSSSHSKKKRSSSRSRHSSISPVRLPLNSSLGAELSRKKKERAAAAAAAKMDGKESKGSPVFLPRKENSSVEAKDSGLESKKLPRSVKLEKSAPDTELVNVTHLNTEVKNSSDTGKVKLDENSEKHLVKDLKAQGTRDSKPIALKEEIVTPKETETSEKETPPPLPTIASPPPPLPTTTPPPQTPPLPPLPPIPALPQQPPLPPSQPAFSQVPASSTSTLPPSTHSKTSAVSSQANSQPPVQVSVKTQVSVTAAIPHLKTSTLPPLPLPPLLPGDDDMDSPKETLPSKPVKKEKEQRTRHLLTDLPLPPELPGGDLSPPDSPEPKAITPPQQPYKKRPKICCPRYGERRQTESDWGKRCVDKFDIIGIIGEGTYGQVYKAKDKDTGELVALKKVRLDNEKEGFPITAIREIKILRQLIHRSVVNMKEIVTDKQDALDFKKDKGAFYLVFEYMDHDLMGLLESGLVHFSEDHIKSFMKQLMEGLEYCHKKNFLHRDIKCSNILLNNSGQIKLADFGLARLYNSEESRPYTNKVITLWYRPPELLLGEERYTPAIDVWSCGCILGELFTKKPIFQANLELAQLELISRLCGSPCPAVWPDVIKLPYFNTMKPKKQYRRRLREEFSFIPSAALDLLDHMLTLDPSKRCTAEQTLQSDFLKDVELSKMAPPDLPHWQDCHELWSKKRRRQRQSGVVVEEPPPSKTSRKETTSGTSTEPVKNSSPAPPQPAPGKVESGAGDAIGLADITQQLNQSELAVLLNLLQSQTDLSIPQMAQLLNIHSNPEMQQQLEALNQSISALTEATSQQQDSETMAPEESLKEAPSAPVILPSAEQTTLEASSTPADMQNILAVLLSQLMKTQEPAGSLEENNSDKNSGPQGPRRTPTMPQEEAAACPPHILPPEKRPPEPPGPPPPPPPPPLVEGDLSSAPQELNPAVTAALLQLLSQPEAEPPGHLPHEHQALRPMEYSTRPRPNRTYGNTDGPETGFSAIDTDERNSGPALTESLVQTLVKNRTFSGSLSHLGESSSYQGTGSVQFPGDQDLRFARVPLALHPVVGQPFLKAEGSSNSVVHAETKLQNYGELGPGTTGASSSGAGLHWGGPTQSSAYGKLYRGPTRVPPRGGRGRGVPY

CDK13 = CDK13 (Homo sapiens, UniProt Q14004); experiment: Biochemical assay for CDK13 (LanthaScreen Eu Kinase Binding Assay); conditions: kinase tracer 236 100 nM, CDK13 5 nM
Sequence of CDK13 (Q14004 whole entry, species assumed): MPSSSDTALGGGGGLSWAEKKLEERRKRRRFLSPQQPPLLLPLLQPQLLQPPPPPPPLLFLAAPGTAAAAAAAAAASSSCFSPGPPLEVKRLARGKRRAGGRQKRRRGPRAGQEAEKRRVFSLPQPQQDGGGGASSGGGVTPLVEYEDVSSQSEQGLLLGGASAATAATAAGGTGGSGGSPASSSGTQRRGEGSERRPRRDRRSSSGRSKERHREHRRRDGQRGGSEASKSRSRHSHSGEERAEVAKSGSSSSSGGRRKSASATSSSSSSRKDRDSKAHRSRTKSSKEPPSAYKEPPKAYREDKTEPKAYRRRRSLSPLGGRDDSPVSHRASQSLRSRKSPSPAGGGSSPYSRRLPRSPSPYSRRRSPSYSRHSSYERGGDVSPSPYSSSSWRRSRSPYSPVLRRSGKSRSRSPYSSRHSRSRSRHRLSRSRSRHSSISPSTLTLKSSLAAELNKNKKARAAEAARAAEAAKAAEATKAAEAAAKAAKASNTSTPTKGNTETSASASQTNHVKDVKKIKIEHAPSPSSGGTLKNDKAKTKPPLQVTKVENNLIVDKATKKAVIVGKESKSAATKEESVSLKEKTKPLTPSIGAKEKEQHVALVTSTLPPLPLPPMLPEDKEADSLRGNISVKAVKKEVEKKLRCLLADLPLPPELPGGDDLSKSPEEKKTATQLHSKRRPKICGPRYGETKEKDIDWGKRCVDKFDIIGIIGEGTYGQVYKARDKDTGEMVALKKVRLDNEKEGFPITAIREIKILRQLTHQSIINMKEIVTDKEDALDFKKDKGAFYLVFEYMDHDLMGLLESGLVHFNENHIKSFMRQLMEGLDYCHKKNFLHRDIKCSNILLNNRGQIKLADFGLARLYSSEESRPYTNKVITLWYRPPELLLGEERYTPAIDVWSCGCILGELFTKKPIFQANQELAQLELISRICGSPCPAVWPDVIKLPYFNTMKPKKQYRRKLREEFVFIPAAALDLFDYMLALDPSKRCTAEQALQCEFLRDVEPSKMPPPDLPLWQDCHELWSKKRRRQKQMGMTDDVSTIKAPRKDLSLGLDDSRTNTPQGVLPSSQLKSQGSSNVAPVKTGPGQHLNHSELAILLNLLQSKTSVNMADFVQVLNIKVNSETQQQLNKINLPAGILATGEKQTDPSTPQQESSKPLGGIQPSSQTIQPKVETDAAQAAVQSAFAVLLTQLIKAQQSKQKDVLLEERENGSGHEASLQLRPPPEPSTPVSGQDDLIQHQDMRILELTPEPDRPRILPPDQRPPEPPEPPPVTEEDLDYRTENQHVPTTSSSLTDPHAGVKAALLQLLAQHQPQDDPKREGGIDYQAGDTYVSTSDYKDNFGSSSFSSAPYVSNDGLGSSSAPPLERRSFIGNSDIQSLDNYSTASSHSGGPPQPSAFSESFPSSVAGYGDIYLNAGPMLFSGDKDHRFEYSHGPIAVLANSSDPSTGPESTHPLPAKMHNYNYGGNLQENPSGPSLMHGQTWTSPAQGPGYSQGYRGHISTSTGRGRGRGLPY
Sequence of CDK13 (O75909 whole entry partner, species assumed): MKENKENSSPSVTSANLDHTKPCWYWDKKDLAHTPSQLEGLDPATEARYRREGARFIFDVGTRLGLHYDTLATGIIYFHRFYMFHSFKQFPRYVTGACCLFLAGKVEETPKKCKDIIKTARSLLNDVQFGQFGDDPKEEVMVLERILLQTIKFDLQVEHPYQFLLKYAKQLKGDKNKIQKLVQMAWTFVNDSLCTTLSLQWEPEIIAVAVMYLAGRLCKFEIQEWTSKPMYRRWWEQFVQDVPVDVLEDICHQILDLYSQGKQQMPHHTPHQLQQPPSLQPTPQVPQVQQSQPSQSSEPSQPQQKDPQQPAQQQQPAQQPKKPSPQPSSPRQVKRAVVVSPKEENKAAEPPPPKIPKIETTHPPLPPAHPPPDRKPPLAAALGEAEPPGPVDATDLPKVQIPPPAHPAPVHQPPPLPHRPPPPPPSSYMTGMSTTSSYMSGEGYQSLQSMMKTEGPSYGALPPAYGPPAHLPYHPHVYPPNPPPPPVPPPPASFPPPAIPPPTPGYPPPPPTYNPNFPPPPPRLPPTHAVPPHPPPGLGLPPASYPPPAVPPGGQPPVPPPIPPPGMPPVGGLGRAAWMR
Procedure: LanthaScreen Eu Kinase Binding Assays are based on the binding and displacement of Alexa Fluor 647-labeled, ATP-competitive kinase inhibitor scaffold (kinase tracer) to the kinase of interest. Binding of the kinase tracer 236 (100 nM) to the CDK13 (5 nM) kinase is detected using a europium-labelled anti- GST tag antibody (2 nM), which binds to the kinase. Simultaneous binding of the tracer and antibody to the kinase results in a high degree of FRET (fluorescence resonance energy transfer) from the europium (Eu) donor fluorophore to the Alexa Fluor™ 647 acceptor fluorophore on the kinase tracer. Binding of an inhibitor to the kinase competes for binding with the tracer, resulting in a loss of FRET signal.

CDK7 [4] = target: T1, CDK7; experiment: Biochemical assay for CDK7 (LANCE TR-FRET, ULight-MBP phosphorylation); conditions: CDK7 10 nM, ATP 1 mM/100 μM, 60 min pre-incubation
Procedure: The inhibitory activity of the test compounds was assessed by the LANCE TR-FRET assay, which detects the ATP-dependent phosphorylation of an ULight-myelin basic protein (MBP) substrate peptide (100 nM) by CDK7 (10 nM). Briefly, the enzyme reaction was run in reaction buffer (20 mM HEPES (pH 7.5), 10 mM MgCl2, 0.01% Triton x, 100 μM Sodium Orthovanadate, 1 mM DTT). The assay was performed in 384-well plate. The end concentration of the ATP substrate was 1 mM/100 μM, and that of the ULight-MBP substrate peptide was 100 nM, and of CDK7 was 10 nM. Pre-incubation of the compound and enzyme was performed for 60 min at room temperature. After 60 min incubation at room temperature, the reaction was terminated by the addition of 40 mM EDTA and 1 nM Eu-labeled anti-phospho-MBP-binding protein antibody in the buffer. Time-resolved fluorescence (excitation, 320 nm; emission donor, 615 nm; emission acceptor, 665 nm) was monitored by using 2030 multilabel reader Victor5 (PerkinElmer). The readout was calculated as (acceptor counts/donor counts)×1000. The IC50 values were derived by fitting a sigmoidal dose-response curve to a plot of assay readout over inhibitor concentration. All fits were computed with the program Prism 5.03 (Graph Pad Software, San Diego, Calif.).
Target sequence in this assay (P50613 whole entry, species assumed): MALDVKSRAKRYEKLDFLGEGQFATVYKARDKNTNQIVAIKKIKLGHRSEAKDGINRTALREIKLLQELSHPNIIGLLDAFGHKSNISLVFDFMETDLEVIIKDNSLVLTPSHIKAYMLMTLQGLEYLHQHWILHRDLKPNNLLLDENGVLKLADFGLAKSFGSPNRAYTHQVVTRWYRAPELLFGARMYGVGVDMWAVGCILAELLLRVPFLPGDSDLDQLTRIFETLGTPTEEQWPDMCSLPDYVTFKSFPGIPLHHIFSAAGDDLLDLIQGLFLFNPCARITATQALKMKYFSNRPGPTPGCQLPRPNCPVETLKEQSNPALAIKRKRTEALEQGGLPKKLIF
Target sequence in this assay (P51946 whole entry partner, species assumed): as the sequence (P51946 whole entry partner) above
Target sequence in this assay (P51948 whole entry partner, species assumed): as the sequence (P51948 whole entry partner) above

Row | Structure (SMILES) | Jurkat Cells, CDK7 Target Occ50 (CDK7 [1]) | Fold CDK7 Target Occ50 over CDK12 Target Occ50 (CDK7 [1]; printed in brackets beside the CDK7 Occ50) [×] | Jurkat Cells, CDK12 Target Occ50 (CDK12 [2]) [µM] | Kd (CDK12 [3]) [nM] | IC50 (CDK13) [nM] | IC50 (CDK7 [4]) [nM]
1 | C=CC(=O)NCc1ccc(-c2cccc(C(C)C(=O)Nc3cc(C4CC4)[nH]n3)c2)cn1 (centres unmarked) [Compound A] | 0.61 µM | 2 | 0.23 | – | – | –
2 | C=CC(=O)NCc1ccc(-c2ccc([C@H](C)C(=O)Nc3cc(C4CC4)[nH]n3)cc2)cn1 [Compound 8, (S)-N-((5-(4-(1-((5-cyclopropyl-1H-pyrazol-3-yl)amino)-1-oxopropan-2-yl)phenyl)pyridin-2-yl)methyl)acrylamide] | >>2 μM | – | 0.022 | < 50 | 3.8 | 5380
3 | C=CC(=O)NCc1ncc(-c2ccc([C@H](C)C(=O)Nc3cc(C4CC4)[nH]n3)cc2)cc1F [Compound 21, (S)-N-((5-(4-(1-((5-cyclopropyl-1H-pyrazol-3-yl)amino)-1-oxopropan-2-yl)phenyl)-3-fluoropyridin-2-yl)methyl)acrylamide] | – | – | – | < 50 | 87.7 | 1310
4 | CC(C(=O)Nc1cc(C2CC2)[nH]n1)c1ccc(-c2ccc(NC(=O)/C=C/CN3CCOCC3)nc2)cc1 (single isomer, unassigned) [Compound 7, (E)-N-(5-(4-(1-((5-cyclopropyl-1H-pyrazol-3-yl)amino)-1-oxopropan-2-yl)phenyl)pyridin-2-yl)-4-morpholinobut-2-enamide] | – | – | – | < 50 | 5 | 1020
5 | C=CC(=O)NCc1ccc(-c2ccc(C(C)C(=O)Nc3cc(C4CC4)[nH]n3)cc2)cc1 (single isomer, unassigned) [Compound 10, N-((4′-(1-((5-cyclopropyl-1H-pyrazol-3-yl)amino)-1-oxopropan-2-yl)-[1,1′-biphenyl]-4-yl)methyl)acrylamide] | – | – | – | > 500 | 804 | > 10000

Source: patent US20230212142A9, “Substituted 5-Cyclopropyl-1H-pyrazole-3-yl-amine Derivatives as Selective CDK12/13 Inhibitors” (Aurigene Discovery Technologies Limited, priority 2019, published 2023)
